From patent US9109048B2, “Inhibition of tumor growth” (priority 1998, dated 2015)
≈ marks a conversion by molar mass, not a printed value. Where two headings read alike, the source gives them in different places. Square brackets hold non-standard residues; d marks the D form. Ends that are not written are not given here. Peptide text beside a SMILES is read from it. Orn = NCCC[C@H](N)C(=O)O

Tests used:
[1] = tested on: Staphylococcus aureus ATCC 25923; experiment: MIC (minimum inhibitory concentration) test, microdilution; format: cell-based
Description: (§1) The bacterial strains used were: Escherichia coli ATCC 25922 and Staphylococcus aureus ATCC 25923. All strains were stored at −70° C. The bacteria were grown in 2% Bacto Peptone water (Difco 1807-17-4). All tests were performed with bacteria in mid-logarithmic growth phase. Determination of the minimum inhibitory concentration (MIC) of the peptides for bacterial strains were performed in 1% Bacto Peptone water. A standard microdilution technique with an inoculum of 2×10^6 CFU/ml was used. All assays were performed in triplets. Since the peptides are positively charged and therefore could adhere to the plastic wells, we controlled the actual concentration of the peptides in the solution by HPLC. There was no difference between the concentration of the peptides before or after adding the solution to the plastic wells.

[2] = tested on: MRSA (methicillin resistant S. aureus); format: cell-based
Description: as §1
(§2) Table 15 below gives the antibacterial activity and toxicity data for some preferred peptides of the invention. MRSA is methicillin resistant S. aureus and MRSE is methicilin resistant S. epidermidis.

human red blood cells = experiment: Hemolytic assay; format: cell-based
Description: The hemolytic activities of the peptides were determined using fresh human red blood cells. 8 ml blood was taken from a healthy person. 4 ml blood was transferred to a polycarbonate tube containing heparin to a final concentration of 10 U/ml, and the remaining 4 ml blood was transferred to a glass tube containing EDTA with final concentration of 15% EDTA. The erythrocytes were isolated from heparin-treated blood by centrifugation in 1500 rpm for 10 min and washed three times with phosphate-buffered saline (PBS) to remove plasma and buffy coat. The cell pellet was resuspended in PBS to make the final volume of 4 ml. The peptide was diluted to a concentration of 2 mg/ml and 0.1 mg/ml. The peptide was further diluted to the concentrations as stated in Table 1. For each tube PBS was added first, then RBCs and peptide solutions. The hematocrit in the blood treated with EDTA was determined after 30 min with Sysmex K-1000, and the resuspended RBCs were diluted into 10% hematocrit. RBCs in PBS (1%) with and without peptides (Table 18) were incubated in a shaker at 37° for 1 hour and then centrifuged at 4000 rpm for 5 min. The supernatant were carefully transferred to new polycarbonate tubes and the absorbance of the supernatant was measured at 540 nm. Baseline hemolysis was hemoglobin released in the presence of PBS, and 100% hemolysis was hemoglobin released in the presence of 0.1% Triton X-100.

[3] = tested on: Escherichia coli ATCC 25922; experiment: MIC (minimum inhibitory concentration) test, microdilution; format: cell-based
Description: as §1

[4] = tested on: human promyelotic leukemia cell line HL 60; experiment: Cytotoxicity on HL 60 cells, MTT; format: cell-based
Description: HL 60 cells, 1×10^4 were incubated with peptides 50, 30, 20, 10, 5, 1 μg, 1000-20 μg/ml in 2 hours and coloured with MTT;

Meth A fibrosarcoma = experiment: Tumor regression, murine Meth A fibrosarcoma; format: in vivo, mice
Description: Specific pathogen-free CB6F1 (Balb/c×C57 BL/6) female mice of about 8 weeks of age were obtained from Charles River (Germany). The mice were kept on standard laboratory chow and water. Tumor bearing mice were serologically screened for viral (LDH, CMV) and mycoplasmic infection and in all cases tested negative.
After a single inoculation of 5×10^7 viable Meth A cells, different LF peptides were injected intratumorally (LFB-14-31, LFB 17-31 Pmc, 500 μg in a 50 μl dose; LFB 17-31, 1000 μg in a 50 μl dose), on day 7 and day 10. LFB 14-31 was also injected intraperitoneally (PBI), 500 μg/ml. Saline only was injected in the control mice (50 μl) (K1,K2,K3). The tumor diameter (mean of transversal and longitudinal) were measured with an electronic calipper.

[5] = tested on: MRSE (methicilin resistant S. epidermidis); format: cell-based
Description: as §1, §2

[6] = injected intratumorally on day 7 and day 10
[7] = Table 1, synthetic lactoferricins

Molecule | MIC S. aureus ([1]; Table 15) [µg/mL] | MIC MRSA ([2]; Table 15) [µg/mL] | MIC MRSA ([2]; methicillin resistant) [µM] | EC50 (human red blood cells; red cells of human) [µM] | MIC E. coli ([3]; ATCC 25922) [µM] | MIC E. coli ([3]; Table 15) [µg/mL] | EC 50 (toxicity, hemolysis) (human red blood cells; red cells of human) [µg/mL] | MIC MRSE ([5]; methicilin resistant) [µM] | also measured
CSCC[C@H](NC(=O)[C@H](CCCN)NC(=O)[C@H](Cc1c[nH]c2ccccc12)NC(=O)[C@H](C)NC(=O)[C@H](Cc1c[nH]c2ccccc12)NC(=O)[C@H](CCCN)NC(=O)[C@H](Cc1ccccc1)NC(=O)[C@H](C)NC(=O)[C@H](CCCN)NC(=O)[C@H](CCCN)NC(=O)[C@H](Cc1c[nH]c2ccccc12)NC(=O)[C@H](C)NC(=O)[C@@H]1CCCN1)C(=O)N[C@@H](CC(C)C)C(=O)N[C@@H](CCCN)C(=O)N[C@@H](CCCN)C(=O)N[C@@H](C)C(=O)N[C@@H](C)C(=O)O (H-PAW[Orn][Orn]AF[Orn]WAW[Orn]ML[Orn][Orn]AA-OH; N-terminus assumed) | 2.5 | 2.5 | 1.2 | 202 |  |  |  |  | MIC S. aureus ([1]; ATCC 25923): 1.2 µM; EC 50 (toxicity, hemolysis) (human red blood cells; Table 15): 425 µg/mL (≈ 202 µM)
CSCC[C@H](NC(=O)[C@H](CCCNC(=N)N)NC(=O)[C@H](Cc1c[nH]c2ccccc12)NC(=O)[C@H](C)NC(=O)[C@H](Cc1c[nH]c2ccccc12)NC(=O)[C@H](CCCNC(=N)N)NC(=O)[C@H](CCCNC(=N)N)NC(=O)[C@H](C)NC(=O)[C@H](CCCCN)NC(=O)[C@H](Cc1ccccc1)NC(=O)[C@H](Cc1c[nH]c2ccccc12)NC(=O)[C@H](C)NC(=O)[C@@H]1CCCN1)C(=O)N[C@@H](CCCCN)C(=O)N[C@@H](CCCCN)C(=O)N[C@@H](CC(C)C)C(=O)N[C@@H](C)C(=O)N[C@@H](C)C(=O)O [LFB 14-31 A2,6,10,17] |  | 5.0 | 2.2 | > 440 | 8.8 | 20.0 | >1000 |  | MIC E. coli ([3]; Table 8): 20 µg/mL
CSCC[C@H](NC(=O)[C@H](CCCNC(=N)N)NC(=O)[C@H](Cc1c[nH]c2ccccc12)NC(=O)[C@H](CCC(N)=O)NC(=O)[C@H](Cc1c[nH]c2ccccc12)NC(=O)[C@H](CCCNC(=N)N)NC(=O)[C@H](CCCNC(=N)N)NC(=O)[C@H](CSCNC(C)=O)NC(=O)[C@H](CCCCN)NC(=O)[C@H](Cc1ccccc1)NC(=O)[C@H](Cc1c[nH]c2ccccc12)NC(=O)[C@H](CCC(=O)O)NC(=O)[C@@H]1CCCN1)C(=O)N[C@@H](CCCCN)C(=O)N[C@@H](CCCCN)C(=O)N[C@@H](CC(C)C)C(=O)NCC(=O)N[C@@H](C)C(=O)O [LFB 14-31] |  |  |  |  |  |  |  |  | Minimum inhibitory concentration (MIC) E. coli ATCC 25922 ([3]; Table 1, value in parentheses): 28 µM; Minimum inhibitory concentration (MIC) S. aureus ATCC 25923 ([1]; Table 1, value in parentheses): 80 µM; cytotoxic effect on human HL 60 cells [4]: no cytotoxic effect; effect on Meth A tumors (Meth A fibrosarcoma; [6]): induced regression of the Meth A tumors; effect on Meth A tumors (Meth A fibrosarcoma; treated intraperitoneally): tumors were also eradicated
CSCC[C@H](NC(=O)[C@H](CCCNC(=N)N)NC(=O)[C@H](Cc1c[nH]c2ccccc12)NC(=O)[C@H](CCC(N)=O)NC(=O)[C@H](Cc1c[nH]c2ccccc12)NC(=O)[C@H](CCCNC(=N)N)NC(=O)[C@H](CCCNC(=N)N)NC(=O)[C@H](CSCNC(C)=O)NC(=O)[C@H](CCCCN)NC(=O)[C@@H](N)Cc1ccccc1)C(=O)N[C@@H](CCCCN)C(=O)N[C@@H](CCCCN)C(=O)N[C@@H](CC(C)C)C(=O)NCC(=O)N[C@@H](C)C(=O)O [LFB 17-31, H2N-Phe-Lys-Cys-Arg-Arg-Trp-Gln-Trp-Arg-Met-Lys-Lys-Leu-Gly-Ala-COOH] |  |  |  |  |  |  |  |  | Minimum inhibitory concentration (MIC) E. coli ATCC 25922 ([3]; Table 1, value in parentheses): 20 µM; Minimum inhibitory concentration (MIC) S. aureus ATCC 25923 ([1]; Table 1, value in parentheses): 50 µM; cytotoxic effect on human HL 60 cells ([4]; FIG. 7, concentrations tested): no cytotoxic effect; effect on Meth A tumors (Meth A fibrosarcoma; [6]): induced regression of the Meth A tumors
CC[C@H](C)[C@H](NC(=O)[C@H](CO)NC(=O)[C@@H]1CCCN1C(=O)[C@H](C)NC(=O)CNC(=O)[C@H](CC(C)C)NC(=O)[C@H](CCCCN)NC(=O)[C@H](CCCCN)NC(=O)[C@H](CCSC)NC(=O)[C@H](CCCNC(=N)N)NC(=O)[C@H](Cc1c[nH]c2ccccc12)NC(=O)[C@H](CCC(N)=O)NC(=O)[C@H](Cc1c[nH]c2ccccc12)NC(=O)[C@H](CCCNC(=N)N)NC(=O)[C@H](CCCNC(=N)N)NC(=O)[C@H](CSCNC(C)=O)NC(=O)[C@H](CCCCN)NC(=O)[C@@H](N)Cc1ccccc1)C(=O)N[C@H](C(=O)N[C@@H](CSCNC(C)=O)C(=O)N[C@H](C(=O)N[C@@H](CCCNC(=N)N)C(=O)N[C@@H](CCCNC(=N)N)C(=O)N[C@@H](C)C(=O)N[C@@H](Cc1ccccc1)C(=O)O)C(C)C)[C@@H](C)O [LFB (17-41), reference compound] |  |  |  |  |  |  |  |  | Minimum inhibitory concentration (MIC) E. coli ATCC 25922 [3, 7]: 30 µg/mL; Minimum inhibitory concentration (MIC) S. aureus ATCC 25923 [1, 7]: 30 µg/mL; cytotoxic effect on human HL 60 cells ([4]; FIG. 7, concentrations tested): weak concentration dependant cytotoxic effect
CSCC[C@H](NC(=O)[C@H](CCCNC(=N)N)NC(=O)[C@H](Cc1ccc2ccccc2c1)NC(=O)[C@H](CCC(N)=O)NC(=O)[C@H](Cc1ccc2ccccc2c1)NC(=O)[C@H](CCCNC(=N)N)NC(=O)[C@H](CCCNC(=N)N)NC(=O)[C@H](CSCNC(C)=O)NC(=O)[C@H](CCCCN)NC(=O)[C@@H](N)Cc1ccccc1)C(=O)N[C@@H](CCCCN)C(=O)N[C@@H](CCCCN)C(=O)N[C@@H](CC(C)C)C(=O)NCC(=O)N[C@@H](C)C(=O)O [LFB Nal6,8] | 20.0 | 5.0 |  |  |  | 10.0 | >1000 |  | MIC E. coli ([3]; Table 9): 10 µg/mL; MIC S. aureus ([1]; Table 9): 20 µg/mL
CSCC[C@H](NC(=O)[C@H](CCCNC(=N)N)NC(=O)[C@H](Cc1c[nH]c2ccccc12)NC(=O)[C@H](CCC(N)=O)NC(=O)[C@H](Cc1c(S(=O)(=O)c2c(C)c(C)c3c(c2C)CCC(C)(C)O3)[nH]c2ccccc12)NC(=O)[C@H](CCCNC(=N)N)NC(=O)[C@H](CCCNC(=N)N)NC(=O)[C@H](CSCNC(C)=O)NC(=O)[C@H](CCCCN)NC(=O)[C@@H](N)Cc1ccccc1)C(=O)N[C@@H](CCCCN)C(=O)N[C@@H](CCCCN)C(=O)N[C@@H](CC(C)C)C(=O)NCC(=O)N[C@@H](C)C(=O)O [LFB PMC6] | 2.5 | 2.5 | 1.1 |  | 4.3 | 10.0 | >1000 |  | MIC E. coli ([3]; Table 13): 10 µg/mL
H-FKWRRWQWRMKKLWA-OH [LFBW3,14, H2N-Phe-Lys-Trp-Arg-Arg-Trp-Gln-Trp-Arg-Met-Lys-Lys-Leu-Trp-Ala-COOH] |  |  | 1.1 |  | 4.5 |  | >1000 | 1.1 | MIC E. coli ([3]; Table 14): 10 µg/mL; MIC E. coli ([3]; Table 15, 14): 10.0 µg/mL; MIC S. aureus ([1]; Table 15, 14): 2.5 µg/mL; MIC MRSA ([2]; Table 15, 14): 2.5 µg/mL; MIC MRSE ([5]; Table 15, 14): 2.5 µg/mL
RRWYRWWR-NH2 [LFM 17-24 R1,2,8 W3,7Y4NH2] |  | 1.0 | 0.7 | > 733 | 3.7 | 5.0 | >1000 | 1.8 | MIC E. coli ([3]; Table 12): 5 µg/mL; MIC MRSE ([5]; Table 15): 2.5 µg/mL
RWWRYWR-NH2 [LFM 18-24 R1,7 W2,3,6Y5NH2, ARG-TRP-TRP-ARG-TYR-TRP-ARG-CONH2] |  |  |  | > 829 | 8.3 | 10.0 | >1000 | 0.8 | MIC E. coli ([3]; Table 12): 10 µg/mL; MIC E. coli ([3]; Table 16, peptides with D-amino acids): 10 µg/mL; MIC S. aureus ([1]; ATCC 25923): 0.4 to 0.8 µM; MIC MRSE ([5]; Table 15): 1.0 µg/mL
YRAWRWAWRWR-NH2 [LFB 17-27 A3,7 R2,11 W4,10 Y1 NH2] | 2.5 |  |  |  | 5.9 | 10.0 |  | 1.5 | MIC S. aureus ([1]; ATCC 25923): 1.5 µM; MIC MRSE ([5]; Table 15): 2.5 µg/mL
